Assay results published in BindingDB's records for PubMed 9023294 (Sanofi Recherche, 1997).

Key:
Neurotensin/neuromedin N = biological target: T1, Neurotensin/neuromedin N (Human, UniProt P30990)
T1 sequence (P30990 whole entry): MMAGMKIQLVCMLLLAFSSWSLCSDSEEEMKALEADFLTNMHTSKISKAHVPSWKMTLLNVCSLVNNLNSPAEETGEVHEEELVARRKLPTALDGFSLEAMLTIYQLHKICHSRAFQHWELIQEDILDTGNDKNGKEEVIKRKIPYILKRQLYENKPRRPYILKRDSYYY

Neurotensin = Neurotensin (Cavia porcellus, UniProt P32560)

Compound: COc1cccc(OC)c1-c1cc(C(=O)NC2(C(=O)O)C3CC4CC(C3)CC2C4)nn1-c1ccc(C(=O)N(C)CCCN(C)C)cc1C(C)C (stereo not drawn) [SR142948A]
- Ki (Neurotensin/neuromedin N): 0.28 nM
- Ki (Neurotensin): 0.17 nM

Compound: COc1cccc(OC)c1-c1cc(C(=O)NC2(C(=O)O)C3CC4CC(C3)CC2C4)nn1-c1ccnc2cc(Cl)ccc12 (stereo not drawn)
- Ki (Neurotensin): 3.9 nM
